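1) Cells in 96-well plates. 2) Compound, 48 h, 5 concentrations. 3) Linear interpolation between surrounding doses. 4) Unreached endpoint = highest concentration. GI50: concentration for 50% inhibition of growth.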 Active and inactive are the calls of the source. Rule as the data show it: active = GI50 up to about 1.1 µM and inactive = higher.
Assays:
Assay in all cases: DTP human tumour cell line panel, 48 h
[1] = test system: LOX IMVI
[2] = test system: HOP-92
[3] = test system: RXF 393
[4] = test system: ACHN
[5] = test system: M14
[6] = test system: A549
[7] = test system: M19-MEL
[8] = test system: NCI-H522
[9] = test system: OVCAR-4
[10] = test system: HT-29
[11] = test system: TK-10
[12] = test system: DMS-114
[13] = test system: KM-20L2
[14] = test system: SR
[15] = test system: NCI-H226
[16] = test system: NCI/ADR-RES
[17] = test system: T47D
[18] = test system: MDA-N
[19] = test system: PC-3
[20] = test system: MDA-MB-435

Structure (SMILES) | GI50 [1] | GI50 [2] | GI50 [3] | GI50 [4] | GI50 [5] | GI50 [6] | GI50 [7] | GI50 [8] | GI50 [9] | GI50 [10] | GI50 [11] | GI50 [12] | GI50 [13] | GI50 [14] | GI50 [15] | GI50 [16] | GI50 [17] | GI50 [18] | GI50 [19] | GI50 [20]
[O-][S+]1[C@H](c2ccccc2)c2c(-c3ccccc3)sc(-c3ccccc3)c2[C@@H]1c1ccccc1 (some centres undefined) | 94.8 µM (inactive) | 2.96 µM (inactive) | 23.1 µM (inactive) | 5.89 µM (inactive) | 85.9 µM (inactive) | 10.8 µM (inactive) | > 100 µM (inactive) | 3.23 µM (inactive) | 8.49 µM (inactive) | 41 µM (inactive) | 9.1 µM (inactive) | 10.2 µM (inactive) | 5.79 µM (inactive) | – | – | – | – | – | – | –
CCOc1ccc2nc(NC(=O)C(=O)C(C(=O)c3ccccc3F)C3OC(=O)c4ccccc43)sc2c1 (centres undefined) | – | – | 21.5 µM (inactive) | 33.2 µM (inactive) | 16.5 µM (inactive) | 31.6 µM (inactive) | 12.1 µM (inactive) | 14 µM (inactive) | 19.2 µM (inactive) | – | 23.3 µM (inactive) | – | 27.9 µM (inactive) | 11.7 µM (inactive) | 5.01 µM (inactive) | – | – | – | – | –
O=C1C2=C(c3ccccc31)C(c1ccccc1Cl)N1C(=O)CSC1=N2 (centres undefined) | > 100 µM (inactive) | 32.5 µM (inactive) | – | > 100 µM (inactive) | > 100 µM (inactive) | > 100 µM (inactive) | > 100 µM (inactive) | 23.8 µM (inactive) | 60.1 µM (inactive) | > 100 µM (inactive) | > 100 µM (inactive) | 53.8 µM (inactive) | > 100 µM (inactive) | – | > 100 µM (inactive) | – | – | – | – | –
CC(=O)O[C@@H]1CN(S(=O)(=O)c2ccc(C)cc2)C[C@@H]1C1CCCCC1 | 24.6 µM (inactive) | 14.7 µM (inactive) | – | 37.5 µM (inactive) | 15.8 µM (inactive) | – | – | – | 50.6 µM (inactive) | 22.9 µM (inactive) | 14.2 µM (inactive) | – | – | 23.4 µM (inactive) | 16.5 µM (inactive) | 20.6 µM (inactive) | 31.8 µM (inactive) | 17.1 µM (inactive) | 18.3 µM (inactive) | 18.7 µM (inactive)
Cn1c(=O)c2nc(N3CCCCC3)cnc2n(C)c1=O | – | > 100 µM (inactive) | – | > 100 µM (inactive) | > 100 µM (inactive) | > 100 µM (inactive) | > 100 µM (inactive) | > 100 µM (inactive) | > 100 µM (inactive) | > 100 µM (inactive) | > 100 µM (inactive) | – | > 100 µM (inactive) | > 100 µM (inactive) | – | – | – | – | – | –
O=C(O)CN1CCN(CC(=O)O)CCN(CC(=O)O)CC1 | > 24.1 µM (inactive) | 38.2 µM (inactive) | 5.64 µM (inactive) | > 100 µM (inactive) | 38.3 µM (inactive) | 3.03 µM (inactive) | – | 5.22 µM (inactive) | 34.1 µM (inactive) | 3.55 µM (inactive) | > 48.8 µM (inactive) | – | – | 3.27 µM (inactive) | – | – | > 100 µM (inactive) | 3.7 µM (inactive) | > 28.5 µM (inactive) | 30.8 µM (inactive)
CO[C@H]1ON=C(c2c(C)cc(C)cc2C)[C@@H]1C1(c2ccccc2)ON=C(c2c(C)cc(C)cc2C)O1 (some centres undefined) | > 100 µM (inactive) | > 100 µM (inactive) | > 100 µM (inactive) | > 100 µM (inactive) | – | > 100 µM (inactive) | > 100 µM (inactive) | > 100 µM (inactive) | – | – | > 100 µM (inactive) | – | > 100 µM (inactive) | > 100 µM (inactive) | – | – | – | – | – | –
C=CCn1c(=O)c(C(=O)Nc2nc(C34CC5CC(CC(C5)C3)C4)cs2)c(O)c2ccccc21 | 34 µM (inactive) | 28.4 µM (inactive) | 31.6 µM (inactive) | 29.5 µM (inactive) | – | 18.2 µM (inactive) | – | 44 µM (inactive) | 39.2 µM (inactive) | 19.1 µM (inactive) | 82.8 µM (inactive) | – | – | 37.1 µM (inactive) | 50.7 µM (inactive) | 15 µM (inactive) | – | 48.6 µM (inactive) | 43.4 µM (inactive) | 63.4 µM (inactive)
O=C(O)c1ccc([N+](=O)[O-])c2cc3cnccc3nc12 | – | 30.1 µM (inactive) | 27.1 µM (inactive) | – | 17.8 µM (inactive) | – | – | 13.4 µM (inactive) | – | 22.6 µM (inactive) | – | – | – | 43.2 µM (inactive) | 30.3 µM (inactive) | 25.9 µM (inactive) | 18.6 µM (inactive) | 20.6 µM (inactive) | 15.5 µM (inactive) | 26.9 µM (inactive)
C=C(/C=C/C=C(\C)CCC=C(C)C)[C@@H]1CC[C@]2([C@H](CCCO)/C(=C(/C)C=O)CC[C@]2(C)O)[C@@H]1O | 14.7 µM (inactive) | < 0.01 µM (active) | 22.6 µM (inactive) | > 100 µM (inactive) | 21.7 µM (inactive) | 13.3 µM (inactive) | > 10 µM (inactive) | 16.7 µM (inactive) | – | 15.8 µM (inactive) | 31.3 µM (inactive) | – | 29.3 µM (inactive) | 18.8 µM (inactive) | 24 µM (inactive) | – | – | – | – | –
C=CCNC(=O)CN(CC(=O)OC)C1CCCCC1N(CC(=O)OC)CC(=O)OC (centres undefined) | > 100 µM (inactive) | > 100 µM (inactive) | > 100 µM (inactive) | > 100 µM (inactive) | > 100 µM (inactive) | > 100 µM (inactive) | – | > 100 µM (inactive) | – | > 100 µM (inactive) | > 100 µM (inactive) | – | – | – | > 100 µM (inactive) | > 100 µM (inactive) | > 100 µM (inactive) | > 100 µM (inactive) | > 100 µM (inactive) | > 100 µM (inactive)
NC(CSC1(c2ccc(Cl)cc2)c2ccccc2-c2ccccc21)C(=O)O (centres undefined) | 16.7 µM (inactive) | 20.7 µM (inactive) | 31.6 µM (inactive) | 22.8 µM (inactive) | 26.4 µM (inactive) | 31.3 µM (inactive) | – | 15.4 µM (inactive) | 22.2 µM (inactive) | 37.8 µM (inactive) | 24.8 µM (inactive) | – | – | 15.1 µM (inactive) | 27.2 µM (inactive) | 39.1 µM (inactive) | 29 µM (inactive) | > 100 µM (inactive) | 18.3 µM (inactive) | 14.4 µM (inactive)
O=C(Nc1cccc2ccccc12)Oc1ccccc1C1CCCCC1 | 16.3 µM (inactive) | 15.8 µM (inactive) | 15 µM (inactive) | – | 18.1 µM (inactive) | 21.4 µM (inactive) | 22.3 µM (inactive) | – | 16.3 µM (inactive) | 18.2 µM (inactive) | 23 µM (inactive) | 19.9 µM (inactive) | 20.9 µM (inactive) | 17.5 µM (inactive) | 18.2 µM (inactive) | – | – | – | – | –
C/C=C(\C)C(=O)OC1C2C(C)C(=O)OC2C(O)C(C)C2C=CC(=O)C21C (centres undefined) | 13.2 µM (inactive) | 13.4 µM (inactive) | 8.73 µM (inactive) | 12.3 µM (inactive) | 14.9 µM (inactive) | 17.8 µM (inactive) | – | 2.69 µM (inactive) | 16.9 µM (inactive) | 15.2 µM (inactive) | 12.5 µM (inactive) | – | – | 2.18 µM (inactive) | 16.9 µM (inactive) | 14.6 µM (inactive) | 16.7 µM (inactive) | 8.81 µM (inactive) | 16.8 µM (inactive) | 12.9 µM (inactive)
CC1(C)CC[C@]2(C(=O)O)CC[C@]3(C)C(=CC[C@@H]4[C@@]5(C)CC[C@@H]6OC(C)(C)OC[C@@]6(C)[C@@H]5CC[C@]43C)[C@H]2C1 | 4.8 µM (inactive) | – | – | 3.24 µM (inactive) | 15.5 µM (inactive) | – | – | 7.71 µM (inactive) | 3.05 µM (inactive) | 4.54 µM (inactive) | 11.6 µM (inactive) | – | – | 10.1 µM (inactive) | – | 16.9 µM (inactive) | 13.9 µM (inactive) | 13.3 µM (inactive) | 5.4 µM (inactive) | 8.55 µM (inactive)
C=C(CN(C)C)C(=O)c1ccc(OC2OC(COC(C)=O)C(OC(C)=O)C(OC(C)=O)C2OC(C)=O)cc1 (centres undefined) | 3.35 µM (inactive) | 0.581 µM (active) | 1.76 µM (inactive) | 1.62 µM (inactive) | 2.4 µM (inactive) | 21.2 µM (inactive) | – | 0.447 µM (active) | 3.75 µM (inactive) | 2.75 µM (inactive) | 3.39 µM (inactive) | 5.9 µM (inactive) | 17.4 µM (inactive) | 0.975 µM (active) | 7.36 µM (inactive) | – | 2.9 µM (inactive) | 3.03 µM (inactive) | 15.3 µM (inactive) | 6.18 µM (inactive)
O=c1c2cccnc2oc2c(Cl)cc(-c3nnn[nH]3)cc12 | – | 68.7 µM (inactive) | > 100 µM (inactive) | > 100 µM (inactive) | > 100 µM (inactive) | > 100 µM (inactive) | – | – | > 100 µM (inactive) | > 100 µM (inactive) | > 100 µM (inactive) | – | – | > 100 µM (inactive) | > 100 µM (inactive) | > 100 µM (inactive) | > 100 µM (inactive) | > 100 µM (inactive) | > 100 µM (inactive) | > 100 µM (inactive)
Cc1cn(Cc2cn(CC3OC(n4cc(C)c(=O)[nH]c4=O)CC3O)nn2)c(=O)[nH]c1=O (centres undefined) | – | – | > 100 µM (inactive) | > 100 µM (inactive) | > 100 µM (inactive) | > 100 µM (inactive) | – | – | > 100 µM (inactive) | – | > 100 µM (inactive) | – | – | – | > 100 µM (inactive) | > 100 µM (inactive) | > 100 µM (inactive) | > 100 µM (inactive) | > 100 µM (inactive) | > 100 µM (inactive)
CC(C)(C)OC(=O)NC(Cc1c[nH]cn1)C(=O)N1CCCC1C(N)=O (centres undefined) | > 100 µM (inactive) | > 100 µM (inactive) | 2.17 µM (inactive) | > 100 µM (inactive) | > 100 µM (inactive) | > 100 µM (inactive) | – | > 100 µM (inactive) | > 100 µM (inactive) | > 100 µM (inactive) | > 100 µM (inactive) | – | – | > 100 µM (inactive) | 33.1 µM (inactive) | > 100 µM (inactive) | > 100 µM (inactive) | > 100 µM (inactive) | > 100 µM (inactive) | > 100 µM (inactive)
